System: non-tumor-bearing immunocompetent FVB mice
Assay: Dual-isotope SPECT/CT imaging of [177Lu]LuCl3 and [161Tb]TbCl3
Format: in vivo
Conditions: radiolanthanides in chloride form
Protocol: Dual-isotope SPECT studies with mice were performed as previously reported. Tumor-bearing nude mice (n = 2‒3 for each type of radioconjugate) were injected with 20 MBq (1 nmol) of a mixture of ^177Lu- and ^161Tb-labeled tumor-targeting agents (each 10 MBq, 0.5 nmol) diluted in saline containing 0.05% BSA. Non-tumor-bearing immunocompetent FVB mice (n = 2) were injected with 20 MBq of a mixture of [^177Lu]LuCl3 (10 MBq, 13.8 pmol) and [^161Tb]TbCl3 (10 MBq, 14.3 pmol) diluted with saline containing 0.05% BSA with a final pH value of 4.5. Additional mice (n = 2) were injected with colloids of lutetium-177 and terbium-161 obtained by diluting the chloride salts with PBS of pH 7.4 (Supplementary Material). SPECT/CT images were acquired 1 h, 4 h and 24 h after injection of the activity solutions using a dedicated small-animal SPECT/CT scanner (NanoSPECT/CT, Mediso Medical Imaging Systems, Budapest, Hungary) and the Nucline software (version 1.02, Mediso Ltd., Budapest, Hungary). Counts stemming from the γ-lines of lutetium-177 (112.9 keV ± 10% and 208.4 ± 10%) and the γ-lines and x-rays of terbium-161 (47.7 keV ± 10% and 74.6 keV ± 10%) were simultaneously registered using the respective energy windows for each radionuclide. […]

Bone uptake on SPECT images: higher bone uptake
SMILES: [Cl][Lu]([Cl])[Cl] [[^177Lu]LuCl3]
